Measurements reported in paper PMC12914960, “Repurposing a detrimental antibody epitope as targeted therapeutics for sepsis and rheumatoid arthritis” (Military Medical Research, 2026).
Values joined by “and” are separate entries in the source; they are usually repeats but may differ in a detail not shown here. Identical values can stand only once. Where a SMILES comes first, the peptide text is derived from it.

What was measured:
human PBMCs = experiment: RNA-seq of HMGB1-stimulated PBMCs; type: cell-based
Protocol: Total RNA was isolated from human PBMCs (n = 6 biological replicates) stimulated with HMGB1 in the absence or presence of P2-1 (5.0 or 10.0 µg/ml) via the RNeasy Mini Kit (Qiagen, Germantown, MD, USA) according to the manufacturer’s instructions. cDNA libraries were prepared using the TruSeq RNA Library Prep Kit v2 (Illumina, San Diego, CA, USA) and sequenced on an Illumina NovaSeq 6000 platform to generate 100 bp paired-end reads. Gene counts were quantified via StringTie and DESeq2 for differential gene expression analysis. Volcano plots and heatmaps were generated via ggplot2 and pheatmap packages in R, respectively. Genes with an adjusted P-value < 0.05 and a |log2 fold change|> 1 were considered differentially expressed. […]
custom-synthesized (Gen Script, Piscataway, NJ, USA). P2 -1 was engineered to: i) increase solubility by removing a w ater-insoluble phenylalanine (F) at the C-terminal residue 70 and introducing a water-soluble threonine (T) at N-t erminal residue 54; and ii) reduce oxidative susceptibility by substituting methionine (M) with norleucine (Nle) and cysteine (C) with serine (S), respectively. The pCTS -L-neutralizing mAbs (mAb2) and TN-neutrali zing mAbs (mAb8 and m Ab9) were generated in BALB/c and C57BL/6 m ice as previously described .
RNA sequencing (RNA- Seq) and bioinformatics analysis
Total RNA was isolated from human PBMCs (n= 6 biological replicates) stimulated with HMGB1 in the absence o r pres ence o f P2-1 (5.0 or 10.0 µg/ml) via the RNeasy Mini Kit (Qiagen, Germantown, MD, USA) according to the manufacturer ’s instructions. RNA quantity and quality were assessed via a NanoDrop spectrophotometer, which requires A260/280 and A260/230 ratios to both be > 1.8. Samples meeting these criteria were then sent to two sequencing facilities, where RNA integrity was further confirmed via an Agilent Bioanalyzer. Only samples with an RNA integrity number of 8 or above were accepted for RNA sequencing. cDNA libraries were prepared using the TruSeq RNA Library Prep Kit v2 (Illumina, San Diego, CA, USA) and sequenced on an Illumina NovaSeq 6000 platform to generat e 100 bp paired-end reads. Our data filtering criteria adhered to industry best practices to ensure data quality.
First, raw sequencing reads underwent quality assessment with FastQC, followed by adapter and low-quality nucleotide trimming using Trimmomatic v.0.36. Subsequently, the high- quality reads wer e aligned to the Homo sapiens GRCh38 reference genome using the STAR aligner v.2.5.2b. Following alignment, PCR duplicates were identified and removed with Picard tools to mitigate amplification bias. Before differential expression an alysis, the gene count matrix was filtered to retain only genes with a count-per-million (CPM) > 1 in at least three samples (n = 3, representing our smallest experimental group). This rigorous procedure ensured that analysis was perfo rmed on a robust set of reliably expressed gen es. Finally, gene counts were quantified via StringTie and DESeq2 for differential gene expression analysis. Volcano

[1] = system: Differentiated human macrophages; experiment: HMGB1-induced macrophage death, trypan blue uptake; type: cell-based; details: 16 h; for Trypan blue uptake: individual replicates
Protocol: Human macrophage differentiation and treatment
Human PBMCs were differentiated into macrophages by culturing in human macrophage colony-stimulating factor (M-CSF, 20 ng/ml) for 5 – 6 d. Differentiated macrophages were maintained in Dulbecco’s modified Eagle’s medium supplemented with 1% penicillin/streptomycin and 10% human serum. Upon reaching 70 – 80% conflu ence, adh erent cells were wash ed and switched to Opti-MEM I before stimulation with recombinant HMGB1 (0.5 µg/ml) with or without P2- 1 (5.0 or 10 µg/ml) for 16 […]
Cell viability was assessed via the tryp an blue excl usion and lactat e dehyd ro genase (LDH) release method as previously described . For trypan blue exclusion, random phase-contr ast images were captur ed , and the percentage of nonviable, trypan blue-stained cells was calculated. LDH release in the culture medium was quantified with an LDH Ass ay Kit (Cat. #L7572, Pointe Scientific Inc., Canton, MI, USA) according to the manufacturer ’s instructions. Optical density was measured at 340 nm, and LDH content was expressed as a per centag e of maximal release in the presence of 2% Triton X-100. The experiments were performed 5 – 7 times ( n= 5 –7 biological replicates). […]

CCCC[C@H](NC(=O)[C@H](Cc1c[nH]cn1)NC(=O)[C@@H](NC(=O)[C@H](CCCCN)NC(=O)[C@@H](N)[C@@H](C)O)C(C)C)C(=O)N[C@@H](CCCCN)C(=O)N[C@@H](CO)C(=O)N[C@@H](Cc1ccccc1)C(=O)N[C@@H](CC(C)C)C(=O)N[C@@H](C)C(=O)N[C@@H](Cc1ccccc1)C(=O)N[C@@H](CCC(N)=O)C(=O)N[C@H](C(=O)N[C@@H](CCCCN)C(=O)N[C@H](C(=O)O)[C@@H](C)O)[C@@H](C)O [P2-1] (HELM PEPTIDE1{T.K.V.H.[Nle].K.S.F.L.A.F.Q.T.K.T}$$$$V2.0; N-terminus and C-terminus assumed) was tested, and the “Ctsl mRNA upregulation” value (human PBMCs; HMGB1 + P2-1 5.0 µg/ml, human PBMCs) was 2.4 ± 0.1 -fold, the “HMGB1-induced transcriptional changes, in words” value (human PBMCs; HMGB1 with P2-1, human PBMCs) was “did not broadly reverse HMGB1-induced transcriptional changes in most genes” and the Trypan blue uptake ([1]; HMGB1 0.5 µg/ml + P2-1 5.0 μg/ml) was 4.1% and 2.7% and 4.8% and 2.3% and 0.9% and 2.4%. For the same compound, the Trypan blue uptake ([1]; HMGB1 0.5 µg/ml + P2-1 10.0 μg/ml) was 2.9% and 0.8% and 3.8% and 1.1% and 4.2% and 3.6% and 2.4% and the “HMGB1-induced macrophage death, in words” value ([1]; trypan blue uptake and LDH release, HMGB1 0.5 µg/ml, P2-1 5.0 or 10 µg/ml) was “significantly inhibited HMGB1-induced macrophage death”.
